# Values of other authors as cited in patent US12263157B2, “Aldosterone synthase inhibitors for treating chronic kidney disease” (Boehringer Ingelheim International GmbH, priority 2021, dated 2025).
# Columns and labels:
# [1] = system: patients with diabetic kidney disease; settings: on top of standard of care
# [2] = system: patients with heart failure with reduced ejection fraction; settings: overall trial population
# [3] = system: people with type 2 diabetes
Structure (SMILES),"relative risk reduction for the composite endpoint of doubling of serum creatinine, ESRD or renal/CV death [1] [%]","reduction of the risk of the exploratory composite renal endpoint (chronic dialysis, kidney transplant, or sustained reduction in eGFR) [2] [%]","HR for the composite outcome of doubling of creatinine, the need to start kidney replacement therapy, or renal death ([3]; exploratory analysis, 95% CI 0.40-0.75)","reduction of the incidence of the composite outcome of doubling of creatinine, the need to start kidney replacement therapy, or renal death ([3]; exploratory analysis, people with type 2 diabetes) [%]",risk of hyperkalaemia or acute kidney injury ([3]; regardless of baseline ACEi or ARB use)
Cc1ccc([C@@H]2O[C@H](CO)[C@@H](O)[C@H](O)[C@H]2O)cc1Cc1ccc(-c2ccc(F)cc2)s1 [canagliflozin],30,,,,
OC[C@H]1O[C@@H](c2ccc(Cl)c(Cc3ccc(O[C@H]4CCOC4)cc3)c2)[C@H](O)[C@@H](O)[C@@H]1O [empagliflozin],,50,0.54,46,no evidence of an increased risk
